Among the data in PubChem BioAssay (NCI) are GI50 and TGI values, retold here.

Some test systems named below: CCRF-CEM leukemia; SK-MEL-28 melanoma; K-562 leukemia; UACC-257 melanoma; MDA-MB-231 breast; A549 NSCLC; ACHN renal; OVCAR-3 ovarian; NCI/ADR-RES ovarian; BT-549 breast.
What all share (assay): NCI anticancer screen, dose series, 48 h

The structures appear in SMILES notation.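 Where inhibition never reached the appropriate level, the endpoint shown equals the highest concentration tested. Otherwise, values were interpolated linearly from a five-concentration, 48-hour dose response in 96-well plates. Here, GI50 denotes the concentration required for 50% inhibition of growth. The concentration for full growth arrest is given as TGI.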

`COc1ncc(-c2ccc3nccc(C#CCCCCC(=O)NO)c3c2)cc1NS(=O)(=O)c1ccc(F)cc1F`: the GI50 with CCRF-CEM leukemia was 0.105 µM; in the assay on SK-MEL-28 melanoma, 0.0692 µM; with K-562 leukemia it was 1.98 µM; in the assay with UACC-257 melanoma, 0.198 µM; in the assay with MDA-MB-231 breast, 0.998 µM; with A549 NSCLC, 0.104 µM. The GI50 with ACHN renal was 0.111 µM; with OVCAR-3 ovarian it was 0.0651 µM; in the assay on NCI/ADR-RES ovarian, 3.59 µM; in the assay on BT-549 breast, 0.0535 µM. The TGI in the assay with CCRF-CEM leukemia is 5.65 µM; in the assay with SK-MEL-28 melanoma it was 2.1 µM; in the assay with K-562 leukemia it was 16.7 µM; with UACC-257 melanoma, 1.44 µM; in the assay on MDA-MB-231 breast it was 7.85 µM; in the assay with A549 NSCLC, 3.17 µM. Besides, the TGI in the assay on ACHN renal is 12.3 µM; with OVCAR-3 ovarian, 2.52 µM; in the assay on NCI/ADR-RES ovarian, 30 µM; with BT-549 breast, 2.77 µM.

Consider `CC/C(=C(/c1ccc(OCCN(C)C)cc1)c1ccc(OC(=O)CCCCCCCCC(=O)c2c(C)[nH]c(/C=C3\N=C(c4ccc[nH]4)C=C3OC)c2C)cc1)c1ccccc1`, for which the GI50 in the assay with CCRF-CEM leukemia is 0.768 µM; in the assay with SK-MEL-28 melanoma it was 43.9 µM; with K-562 leukemia, 4.54 µM; in the assay with UACC-257 melanoma, 62.5 µM; in the assay on MDA-MB-231 breast, 3.4 µM; in the assay on A549 NSCLC, 4.13 µM. For the same compound, the GI50 with ACHN renal was 7.82 µM; in the assay with OVCAR-3 ovarian, 10.9 µM; in the assay with NCI/ADR-RES ovarian, 31.7 µM; with BT-549 breast, 5.21 µM. Besides, the TGI in the assay on CCRF-CEM leukemia is greater than 100 µM; in the assay on SK-MEL-28 melanoma it was greater than 100 µM; with K-562 leukemia, greater than 100 µM; in the assay with UACC-257 melanoma, greater than 100 µM; with MDA-MB-231 breast, 18.1 µM; with A549 NSCLC, greater than 100 µM. Moreover, the TGI in the assay with ACHN renal, with OVCAR-3 ovarian, in the assay on NCI/ADR-RES ovarian and in the assay on BT-549 breast was greater than 100 µM each time.

Turning to `Nc1nc(N)c2c(n1)CCC(S(=O)(=O)c1ccc3ccccc3c1)C2` (stereo not given), the TGI in the assay on CCRF-CEM leukemia is greater than 100 µM; in the assay on SK-MEL-28 melanoma, greater than 100 µM; in the assay with K-562 leukemia, 63.6 µM; in the assay with UACC-257 melanoma, greater than 100 µM; with MDA-MB-231 breast, greater than 60.5 µM; in the assay on A549 NSCLC it was greater than 100 µM. In addition, the TGI was greater than 100 µM in the assay with ACHN renal, greater than 82.9 µM in the assay on OVCAR-3 ovarian, greater than 100 µM in the assay with NCI/ADR-RES ovarian and greater than 100 µM in the assay with BT-549 breast. Also, the GI50 with K-562 leukemia is 0.315 µM.

For the compound `COc1cc2c(cc1OCCCN1CCN(C(=S)SCCC(C#N)(c3ccccc3)c3ccccc3)CC1)N=C[C@@H]1CCCN1C2=O`, the GI50 is 0.235 µM with CCRF-CEM leukemia; 1.65 µM in the assay with SK-MEL-28 melanoma; 0.573 µM in the assay with K-562 leukemia; 1.99 µM in the assay with UACC-257 melanoma; 1.32 µM in the assay on MDA-MB-231 breast; 1.25 µM with A549 NSCLC. In addition, the GI50 in the assay on ACHN renal is 0.875 µM; in the assay on OVCAR-3 ovarian, 0.488 µM; in the assay on NCI/ADR-RES ovarian it was 3.69 µM; with BT-549 breast, 1.07 µM. For the same compound, the TGI came to 0.537 µM with CCRF-CEM leukemia; 3.07 µM with SK-MEL-28 melanoma; 3.9 µM with UACC-257 melanoma; 3.19 µM in the assay on MDA-MB-231 breast; 7.36 µM in the assay with A549 NSCLC; 2.12 µM in the assay with ACHN renal. The TGI in the assay on OVCAR-3 ovarian is 1.26 µM; in the assay on NCI/ADR-RES ovarian it was greater than 51.5 µM; in the assay with BT-549 breast, 3.79 µM.

As for `C[C@]12CC[C@@H]3c4ccc(OC(=O)N(CCCl)CCCl)cc4CC[C@H]3[C@@H]1CC[C@@H]2OP(=O)(O)O`, the GI50 in the assay with CCRF-CEM leukemia was 25.7 µM; in the assay on SK-MEL-28 melanoma, 37.3 µM; with K-562 leukemia, greater than 73.5 µM; with UACC-257 melanoma it was 44.5 µM; with MDA-MB-231 breast it was 26.8 µM; with A549 NSCLC, 48.8 µM. The GI50 in the assay on ACHN renal is 62.6 µM; with OVCAR-3 ovarian, 46.7 µM; in the assay with NCI/ADR-RES ovarian, 49.5 µM; with BT-549 breast, 27.1 µM. The TGI in the assay on CCRF-CEM leukemia is greater than 78.7 µM; with SK-MEL-28 melanoma, greater than 100 µM; with K-562 leukemia, greater than 100 µM; with UACC-257 melanoma, greater than 80.6 µM; with MDA-MB-231 breast, greater than 64.3 µM; in the assay on A549 NSCLC, greater than 100 µM. Moreover, the TGI with ACHN renal is greater than 100 µM; with OVCAR-3 ovarian, greater than 95.2 µM; with NCI/ADR-RES ovarian, greater than 100 µM; in the assay with BT-549 breast, 79.1 µM.

`CC[C@@H](C)/C=C(C)/C=C/C(=O)c1c(O)c(-c2ccc(O)cc2)cn(OC2CC(=O)CCC(C)OC(=O)CC2O)c1=O` (stereo not given in full): the GI50 was 0.163 µM with CCRF-CEM leukemia; 0.552 µM in the assay on SK-MEL-28 melanoma; 0.386 µM with K-562 leukemia; 0.368 µM with UACC-257 melanoma; 0.85 µM with MDA-MB-231 breast; 1.74 µM with A549 NSCLC. Moreover, the GI50 in the assay with ACHN renal was 0.258 µM; in the assay with OVCAR-3 ovarian, 0.284 µM; in the assay with NCI/ADR-RES ovarian, 0.286 µM; with BT-549 breast it was 0.554 µM. Further, the TGI in the assay with CCRF-CEM leukemia is 12.6 µM; in the assay on SK-MEL-28 melanoma, 19.5 µM; with K-562 leukemia it was greater than 47.9 µM; in the assay on UACC-257 melanoma, 8.87 µM; with MDA-MB-231 breast, 24.3 µM; in the assay with A549 NSCLC it was 15.6 µM. In addition, the TGI in the assay with ACHN renal was 7.06 µM; with OVCAR-3 ovarian, 14.1 µM; in the assay with NCI/ADR-RES ovarian, 3.03 µM; in the assay on BT-549 breast, 16.2 µM.

With `O=C(O)c1ccc(/C=N/N=C2c3ccccc3-c3ccccc32)cc1`, the TGI with CCRF-CEM leukemia, with SK-MEL-28 melanoma, with K-562 leukemia, with UACC-257 melanoma, with MDA-MB-231 breast and with A549 NSCLC was greater than 100 µM throughout. Besides, the TGI in the assay on ACHN renal is greater than 100 µM; in the assay with OVCAR-3 ovarian, 67.4 µM; in the assay on NCI/ADR-RES ovarian it was greater than 100 µM; in the assay on BT-549 breast it was greater than 100 µM.

Regarding `CO/C(=C1/NC(=O)C(Cc2ccc(O)c(Br)c2)N(C)C(=O)C(C)NC(=O)CCC/C=C(\C)CCC(C)OC1=O)c1ccccc1` (stereo not given), the GI50 is 0.0185 µM in the assay with CCRF-CEM leukemia; less than 0.0134 µM with SK-MEL-28 melanoma; 0.335 µM in the assay on K-562 leukemia; 0.029 µM with UACC-257 melanoma; 0.0348 µM with MDA-MB-231 breast; less than 0.0141 µM in the assay with A549 NSCLC. In addition, the GI50 is 0.0192 µM in the assay on ACHN renal, less than 0.0164 µM in the assay with OVCAR-3 ovarian, 0.0566 µM in the assay with NCI/ADR-RES ovarian and 0.0368 µM in the assay with BT-549 breast. The TGI was 0.0805 µM in the assay with CCRF-CEM leukemia; 0.0419 µM in the assay on SK-MEL-28 melanoma; greater than 100 µM with K-562 leukemia; 0.15 µM with UACC-257 melanoma; 6.58 µM in the assay on MDA-MB-231 breast; 0.471 µM with A549 NSCLC. In addition, the TGI with ACHN renal turned out to be 0.0623 µM; in the assay on OVCAR-3 ovarian it was 0.0376 µM; with NCI/ADR-RES ovarian, 18.1 µM; in the assay with BT-549 breast, 0.105 µM.
